This note sets out measurements from ChEMBL document CHEMBL1201862, “PubChem BioAssay data set” (2004).

Test systems include NCI/ADR-RES; HCT-116; KM12; OVCAR-5; NCI-H23; UACC-257; A498; Hs-578T; SN12C; ACHN; IGROV-1; TK-10; SNB-19; NCI-H522; CAKI-1; OVCAR-3; LOX IMVI.
What all share (test): inhibition of tumour cell growth, NCI panel, 48 h

The structures appear in SMILES notation.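 1) Cells in 96-well plates. 2) Compound, 48 h, 5 concentrations. 3) Linear interpolation between surrounding doses. 4) Unreached endpoint = highest concentration. The concentration for 50% growth inhibition is given as GI50.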 Calls of active or inactive are those of the source. No stated cut-off is given here; in the data, active = GI50 up to about 1.1 µM and inactive = higher.

Take `O=C(CCC(=O)CC(O)(C(F)(F)F)C(F)(F)F)CC(O)(C(F)(F)F)C(F)(F)F`: the GI50 is 61.7 µM (inactive) in the experiment with NCI/ADR-RES; 46.9 µM (inactive) with HCT-116; 26.4 µM (inactive) in the experiment with KM12; > 100 µM (inactive) in the experiment with OVCAR-5; 30.8 µM (inactive) in the experiment with NCI-H23; 34.4 µM (inactive) with UACC-257. Further, the GI50 in the experiment on A498 is 0.151 µM (active); in the experiment with Hs-578T, 29.4 µM (inactive); in the experiment on SN12C, 42.6 µM (inactive); with ACHN it was 33.7 µM (inactive); with IGROV-1, 29.7 µM (inactive); in the experiment on TK-10, 56.9 µM (inactive). The GI50 in the experiment on SNB-19 was 24 µM (inactive).
Turning to `O=C1C=CC(=O)c2c1ccc1c3ccccc3n(Cc3ccc([N+](=O)[O-])cc3)c21`, the GI50 is > 100 µM (inactive) with NCI/ADR-RES; > 100 µM (inactive) in the experiment with HCT-116; > 100 µM (inactive) in the experiment on KM12; 26.6 µM (inactive) in the experiment with NCI-H522; > 100 µM (inactive) in the experiment with CAKI-1; > 100 µM (inactive) in the experiment with NCI-H23. The GI50 with UACC-257, in the experiment on SN12C, in the experiment with ACHN, with OVCAR-3, in the experiment with IGROV-1 and with TK-10 was > 100 µM (inactive) throughout. Besides, the GI50 with SNB-19 was > 100 µM (inactive).
`Cc1ccc(-c2cn3c(nc4ccccc43)c(/C=C/c3ccco3)n2)cc1`: the GI50 in the experiment with LOX IMVI is 69.2 µM (inactive); with NCI/ADR-RES it was > 100 µM (inactive); in the experiment on HCT-116, > 100 µM (inactive); in the experiment on KM12, 50.1 µM (inactive); in the experiment on OVCAR-5, > 100 µM (inactive); in the experiment with NCI-H23, 37 µM (inactive). For the same compound, the GI50 is 82.6 µM (inactive) in the experiment with UACC-257; > 100 µM (inactive) with A498; 31.9 µM (inactive) in the experiment with Hs-578T; 86.9 µM (inactive) in the experiment with SN12C; > 100 µM (inactive) with ACHN; 49.8 µM (inactive) with OVCAR-3. For the same compound, the GI50 in the experiment with IGROV-1 was 62.1 µM (inactive); in the experiment on TK-10, > 100 µM (inactive); in the experiment on SNB-19, > 100 µM (inactive).
Turning to `CN(C)C1(N(C)C)Oc2c(c(=O)n(C)c(=O)n2C)C(c2ccc(Br)cc2)C1(F)F` (centres undefined), the GI50 with LOX IMVI, in the experiment on NCI/ADR-RES, in the experiment with HCT-116, in the experiment on KM12, in the experiment with CAKI-1 and in the experiment on OVCAR-5 was > 100 µM (inactive) each time. Also, the GI50 with NCI-H23, in the experiment on UACC-257, in the experiment on A498, in the experiment on ACHN, with OVCAR-3 and in the experiment with TK-10 was > 100 µM (inactive) each time. Besides, in the experiment with SNB-19, the GI50 was > 100 µM (inactive).
`Cn1nc2ccc3nccc(N4CCN(CCO)CC4)c3c2n1`: the GI50 in the experiment with LOX IMVI was 0.371 µM (active); with HCT-116, > 100 µM (inactive); in the experiment with KM12, > 100 µM (inactive); in the experiment with NCI-H522 it was > 100 µM (inactive); with OVCAR-5 it was > 100 µM (inactive); in the experiment on NCI-H23 it was > 100 µM (inactive). The GI50 in the experiment with UACC-257, in the experiment on A498, with Hs-578T, in the experiment on SN12C, with ACHN and in the experiment with OVCAR-3 was > 100 µM (inactive) throughout. The GI50 with IGROV-1, in the experiment with TK-10 and with SNB-19 was > 100 µM (inactive) throughout.
Regarding `CCOC(=O)NC(Nc1ccc(S(=O)(=O)Nc2nc(C)cc(C)n2)cc1)(C(=O)OCC)C(F)(F)F` (centres undefined), the GI50 in the experiment on LOX IMVI, in the experiment with HCT-116, in the experiment with KM12, in the experiment with CAKI-1, with OVCAR-5 and in the experiment with NCI-H23 was > 100 µM (inactive) throughout. Besides, the GI50 with A498, in the experiment with Hs-578T, in the experiment with SN12C, with ACHN, in the experiment with OVCAR-3 and in the experiment with IGROV-1 was > 100 µM (inactive) each time. In addition, the GI50 in the experiment on TK-10 was 72.9 µM (inactive); in the experiment on SNB-19, > 100 µM (inactive).
As to `C1=C[C@]2(CCC13OCCO3)COc1ccccc12`, the GI50 with LOX IMVI is 21.5 µM (inactive); in the experiment on NCI/ADR-RES it was 27.4 µM (inactive); in the experiment on HCT-116 it was 37.1 µM (inactive); in the experiment with KM12, 26.3 µM (inactive); with CAKI-1, > 100 µM (inactive); with OVCAR-5, 30.9 µM (inactive). The GI50 in the experiment on NCI-H23 was 26.5 µM (inactive); in the experiment with UACC-257, 43.1 µM (inactive); in the experiment on A498, > 100 µM (inactive); in the experiment on SN12C, 74.8 µM (inactive); in the experiment on ACHN it was 36.6 µM (inactive); with OVCAR-3, 36.1 µM (inactive). Also, the GI50 in the experiment with TK-10 is 49.1 µM (inactive); in the experiment with SNB-19 it was 38 µM (inactive).
In the case of `CC1=C(OC2OC(CO)C(O)C(O)C2O)C(=O)C[C@H]2C1=CC[C@@H]1[C@@]2(C)C(=O)C[C@]2(C)[C@@H]([C@@](C)(O)C(=O)CCC(C)(C)O)[C@H](O)C[C@@]12C` (some centres undefined), the GI50 in the experiment with LOX IMVI, with NCI/ADR-RES, with HCT-116, in the experiment on KM12, in the experiment on NCI-H522 and in the experiment with CAKI-1 was > 100 µM (inactive) in each case. Further, the GI50 in the experiment on OVCAR-5, in the experiment on NCI-H23, in the experiment on UACC-257, with A498, in the experiment with SN12C and in the experiment on ACHN was > 100 µM (inactive) each time. Moreover, the GI50 in the experiment with OVCAR-3, in the experiment with IGROV-1, in the experiment with TK-10 and in the experiment with SNB-19 was > 100 µM (inactive) in each case.
Regarding `CC(C)C1=CC23CCC4C(C)(C(=O)O)CCCC4(C)C2CC1C1C(=O)N(c2cccc(N4C(=O)C5C6CC7C8(C)CCCC(C)(C(=O)O)C8CCC7(C=C6C(C)C)C5C4=O)c2)C(=O)C13` (centres undefined), the GI50 is 9.57 µM (inactive) with HCT-116; 2.75 µM (inactive) in the experiment with KM12; 14.2 µM (inactive) in the experiment on NCI-H522; 7.74 µM (inactive) in the experiment on OVCAR-5; 3.4 µM (inactive) with NCI-H23; 13.4 µM (inactive) in the experiment with A498. The GI50 is 3.77 µM (inactive) in the experiment on Hs-578T; 13.3 µM (inactive) with SN12C; 13.4 µM (inactive) in the experiment with ACHN; 13.1 µM (inactive) with OVCAR-3; 15.9 µM (inactive) with TK-10; 3.02 µM (inactive) in the experiment on SNB-19.
With `C/C(=N\NC(=O)c1ccncc1)c1ccccc1F`, the GI50 in the experiment with LOX IMVI, in the experiment on NCI/ADR-RES, in the experiment on HCT-116, with KM12, in the experiment with CAKI-1 and in the experiment on OVCAR-5 was > 10 µM (inactive) throughout. Further, the GI50 in the experiment on NCI-H23, in the experiment with A498, in the experiment with SN12C, with ACHN, in the experiment with OVCAR-3 and in the experiment with IGROV-1 was > 10 µM (inactive) throughout. The GI50 in the experiment with TK-10 and with SNB-19 was > 10 µM (inactive) throughout.
